The record followed here is patent publication US6211439A, “Herbicide resistance in plants” (MGI Pharma, Inc, priority 1995, dated 2001).

Experiment [1] concerns XA17 seedlings homozygous for the herbicide resistance trait. Briefly: Seedling assay, XA17 seedlings homozygous for the resistance trait. The experiment is classed as in vivo, maize. How it is done:
(§1) Twenty control seeds and ten XA17 seeds were surface sterilized with 2.6% sodium hypochlorite for twenty minutes and then washed with sterile distilled water. The seed was imbibed overnight in sterile water containing a small quantity of the fungicide, captan (N-trichloromethylthio-4-cyclohexene-1,2-dicarboximide). The mature embryos were then excised from the seed and plated scutellum side down on solid MS media without 2,4-D. Ten control seeds were plated on media containing no 214 and ten were plated in the presence of 6×10^-8M 214 which had been incorporated into the medium after autoclaving but before gelling. All ten XA17 seeds were plated in the presence of 6×10^-8 M 214. Seedlings were evaluated seven days after plating.
XA17 seeds homozygous for the resistance trait were obtained as described in Section 6.4.6. […] Assays were conducted as described in Section 6.4.5.

A further experiment relates to XA17 seedlings. Briefly: Seedling assay, progeny of XA17 regenerated plant x B73 (heterozygous). The format is in vivo, maize.
From the text: An XA17 regenerated plant with a normal ear was pollinated with pollen obtained from a herbicide sensitive inbred B73 plant grown from seed. Seeds were obtained and harvested approximately forty days post pollination.
as §1

The subject of experiment [2] is isozymes of AHAS (I, II and III). As to the kind of experiment: E. coli AHAS isozymes assayed in vitro. The experiment is classed as biochemical. Conditions: millimolar concentrations. An excerpt:
Genes encoding AHAS are common to the aspartate and branched chain amino acid pathways in plants and microorganisms (Umbarger, 1978, Ann. Rev. Biochem, 47: 533-606). AHAS catalyzes the first step in the synthesis of the amino acids leucine, valine and isoleucine. AHAS activity is regulated in vivo by various end products or combination of end products of the biosynthetic pathway. AHAS genes with a variety of regulatory characteristics are available from microorganisms including, but not limited to, Escherichia coli, yeast and Neurospora. These might include AHAS genes which are naturally resistant to the imidazolinone herbicides. […] Resistance of E. coli to AC 243,997 therefore appears to be the result of an insensitive site of action as opposed to being a result of metabolism of the herbicide. Resistance in other organisms is likely to be of the same nature, providing a variety of sources of a gene encoding an herbicide resistant AHAS. The genes encoding all three E. coli isozymes have been cloned and sequenced. Selection for imidazolinone resistant mutant AHAS genes in microorganisms or plants including plant tissue cultures would provide a diverse source of genes which, when transferred to plants, produce herbicide resistant plants.

The next experiment relates to Corn Suspension Cultures. Briefly: Free amino acid levels in suspension cultures of the embryogenic cell line used for selection. The format is cell-based, maize. To be noted: 1 × 10^-5 M 997. How it is done: Suspension culture cells were treated for 3.5 hours or 48 hours with 1×10^-5 M 997. Cells were removed from suspension by filtration and 1 gram fresh weight quantities were ground with sand with a mortar and pestle in 1 ml 5% TCA. Four ml of 5% TCA were added and the extract centrifuged at 10,000×g for 10 minutes. The pellet was reextracted and the supernatants combined and subjected to cation exchange chromatography. The samples were applied to Bond Elut SCX columns (Analytichem International Inc., Harbor City, Calif.) which had been equilibrated with 5% TCA. Following sample application, the columns were washed with 5 ml distilled, deionized water, and the amino acids were eluted with 2 ml aliquots of 5% v/v triethylamine. The aliquots were combined (6 ml), lyophilized, and subjected to amino acid analysis with a Kontron Liquemat III amino acid analyzer (Hesber, Middlesex TW5 OQU, England).
The embryogenic cell line used in the selection for herbicide resistant cells (see Section 6.2.1) was different from the cell line used in the characterization of the site of action of 997 described in Section 6.1. Consequently, the effects of 997 on pool sizes of free amino acids in the cell line used in the selection procedure was also studied. The protocol described in Section 6.1.4 was followed for these studies.

[3] abbreviates: 6×10^-8 M 214, seven days after plating.
Where [4] appears, read: average ± standard deviation of three replicates.

As to `CC(C)C1(C)NC(c2nc3ccccc3cc2C(=O)O)=NC1=O` (stereo not shown) [compound 214, 2-(5-isopropyl-5-methyl-4-oxo-2-imidazolin-2-yl)3-quinolinecarboxylic acid], in experiment [1] (3×10^-6 M, seedlings homozygous for the resistance trait), the “shoot growth inhibition at the highest concentration tested” value was “no inhibition”. Further, the “resistance of XA17 homozygous seedlings” value in experiment [1] (vs control seedlings) is listed as “at least 100 fold”. In the experiment on XA17 seedlings (setting [3]), the “root length of resistant seedlings” value is 6-7 cm and the “root length of sensitive seedlings” value is reported as 0-1 cm. Moreover, the “level of tolerance on an herbicide concentration basis” value in the experiment with XA17 seedlings (seedlings heterozygous for the tolerance trait) is listed as “at least 5 fold”.

In the case of `CC(C)C1(C)NC(c2ncccc2C(=O)O)=NC1=O` (stereo not shown) [compound 997, 2-(5-isopropyl-5-methyl-4-oxo-2-imidazolin-2-yl)nicotinic acid], the “sensitivity of AHAS isozymes I, II and III” value in experiment [2] is “insensitive to millimolar concentrations”. Further, in the experiment on Corn Suspension Cultures, the “ala B/A (treated/control)” value was 2.6, the “arg B/A (treated/control)” value was determined as 1.4, the “asp B/A (treated/control)” value was determined as 2.2 and the “glu B/A (treated/control)” value amounted to 3.8. Also, in the experiment with Corn Suspension Cultures, the “gly B/A (treated/control)” value stood at 13.0, the “ile B/A (treated/control)” value is given as 2.4, the “leu B/A (treated/control)” value came to 0.52 and the “lys B/A (treated/control)” value is on record as 1.8. Further, in the experiment on Corn Suspension Cultures, the “met B/A (treated/control)” value amounted to 3.8, the “phe B/A (treated/control)” value was 6.6, the “ser B/A (treated/control)” value came out at 8.7 and the “thr B/A (treated/control)” value was 6.4. For the same compound, in the experiment with Corn Suspension Cultures, the “tyr B/A (treated/control)” value is 2.1 and the “val B/A (treated/control)” value was determined as 0.27. For the same compound, in the experiment with Corn Suspension Cultures (setting [4]), the “Free ala level (B)” value is 5750 ± 1100 n mol per g fresh wt tissue, the “Free arg level (B)” value is on record as 70 ± 60 n mol per g fresh wt tissue, the “Free asp level (B)” value was 5700 ± 650 n mol per g fresh wt tissue and the “Free glu level (B)” value is 8550 ± 210 n mol per g fresh wt tissue. For the same compound, in the experiment on Corn Suspension Cultures (setting [4]), the “Free gly level (B)” value is given as 3130 ± 230 n mol per g fresh wt tissue, the “Free ile level (B)” value is recorded as 220 ± 10 n mol per g fresh wt tissue, the “Free leu level (B)” value is reported as 120 ± 10 n mol per g fresh wt tissue and the “Free lys level (B)” value is 230 ± 140 n mol per g fresh wt tissue. In the experiment with Corn Suspension Cultures (setting [4]), the “Free met level (B)” value is 190 ± 80 n mol per g fresh wt tissue, the “Free phe level (B)” value is 790 ± 90 n mol per g fresh wt tissue, the “Free ser level (B)” value is 20000 ± 2000 n mol per g fresh wt tissue and the “Free thr level (B)” value was 2960 ± 270 n mol per g fresh wt tissue. For the same compound, in the experiment with Corn Suspension Cultures (setting [4]), the “Free tyr level (B)” value is reported as 410 ± 80 n mol per g fresh wt tissue and the “Free val level (B)” value is 140 ± 10 n mol per g fresh wt tissue.
